Results as given in PubChem BioAssay AID330 (DTP/NCI, 2004).
Values joined by “and” are separate entries in the source; they are usually repeats but may differ in a detail not shown here. Identical values can stand only once. Toxic doses and inconclusive results are not listed. Rule for the calls: active = survival T/C of 150% or more; inactive = T/C below 125% in these data. Peptide text beside a SMILES is read from it.

System: P388 leukemia ip, CD2F1 mice, survival T/C
Assay: NCI In Vivo Anticancer Drug Screen. Data for tumor model P388 Leukemia (intraperitoneal) in CD2F1 (CDF1) mice
Settings: endpoint: median survival time, higher = longer survival
In short: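 Mice carrying the transplanted tumor received test compound or vehicle. Survival was recorded in each group, and the value is the treated-group measurement divided by that of the vehicle-treated control group.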

[1] = dose: 30.0 mg/kg/injection, schedule: Q01DX005 (ip), vehicle: saline with Tween-80
[2] = dose: 60.0 mg/kg/injection, schedule: Q01DX005 (ip), vehicle: saline with Tween-80
[3] = dose: 120.0 mg/kg/injection, schedule: Q01DX005 (ip), vehicle: saline with Tween-80
[4] = dose: 50.0 mg/kg/injection, schedule: Q01DX005 (ip), vehicle: saline with Tween-80
[5] = dose: 100.0 mg/kg/injection, schedule: Q01DX005 (ip), vehicle: saline with Tween-80
[6] = dose: 50.0 mg/kg/injection, schedule: Q01DX009 (ip), vehicle: saline with Tween-80
[7] = dose: 100.0 mg/kg/injection, schedule: Q01DX009 (ip), vehicle: saline with Tween-80
[8] = dose: 200.0 mg/kg/injection, schedule: Q01DX009 (ip), vehicle: saline with Tween-80
[9] = dose: 50.0 mg/kg/injection, schedule: Q01DX005 (ip), vehicle: Klucel (hydroxypropylcellulose) (HPC)
[10] = dose: 100.0 mg/kg/injection, schedule: Q01DX005 (ip), vehicle: Klucel (hydroxypropylcellulose) (HPC)
[11] = dose: 200.0 mg/kg/injection, schedule: Q01DX005 (ip), vehicle: Klucel (hydroxypropylcellulose) (HPC)
[12] = dose: 50.0 mg/kg/injection, schedule: Q01DX009 (ip), vehicle: Klucel (hydroxypropylcellulose) (HPC)
[13] = dose: 100.0 mg/kg/injection, schedule: Q01DX009 (ip), vehicle: Klucel (hydroxypropylcellulose) (HPC)
[14] = dose: 240.0 mg/kg/injection, schedule: Q01DX005 (ip), vehicle: saline with Tween-80
[15] = dose: 100.0 mg/kg/injection, schedule: Q04DX003 (ip), vehicle: saline with Tween-80
[16] = dose: 200.0 mg/kg/injection, schedule: Q04DX003 (ip), vehicle: saline with Tween-80
[17] = dose: 400.0 mg/kg/injection, schedule: Q04DX003 (ip), vehicle: saline with Tween-80

Measured: T/C

CC(C)NCC(O)COc1ccc(CCOC(=O)CCc2ccc(C(O)(C(F)(F)F)C(F)(F)F)cc2)cc1 (stereo not given)
inactive: [1] 98 % of control | [2] 96 % of control | [3] 102 % of control

Cc1cc2oc3c(ccc(=O)n3C)c(=O)c2c(C)c1Cl
inactive: [4] 104 % of control | [5] 113 % of control | dose: 200.0 mg/kg/injection, schedule: Q01DX005 (ip), vehicle: saline with Tween-80 88 % of control

CC(C)SC(=S)Nc1ccc(Cl)c([N+](=O)[O-])c1
inactive: dose: 50.0 mg/kg/injection, schedule: Q01DX009 (ip), vehicle: saline 99 % of control | dose: 100.0 mg/kg/injection, schedule: Q01DX009 (ip), vehicle: saline 93 % of control | dose: 200.0 mg/kg/injection, schedule: Q01DX009 (ip), vehicle: saline 103 % of control

O=C(CNC(=O)OCc1ccccc1)Oc1ccccc1[N+](=O)[O-]
inactive: [6] 94 % of control | [7] 100 % of control | [8] 111 % of control

CCn1cnc2c(=S)nc(N)[nH]c21
inactive: dose: 25.0 mg/kg/injection, schedule: Q01DX009 (ip), vehicle: Klucel (hydroxypropylcellulose) (HPC) 105 % of control

Cc1nc2[nH]ncc2c(=O)n1-c1ccccc1Cl
inactive: [9] 101 % of control | [10] 101 % of control | [11] 99 % of control

OC1CC2CCCCC2CC1Cl (stereo not given)
inactive: [12] 90 % of control | [13] 100 % of control | dose: 200.0 mg/kg/injection, schedule: Q01DX009 (ip), vehicle: Klucel (hydroxypropylcellulose) (HPC) 100 % of control

O=[N+]([O-])c1cc2c(ccc3occc32)o1
inactive: [9] 102 % of control | [10] 97 % of control | [11] 98 % of control

Cc1no[n+]([O-])c1NC(=O)OCc1ccccc1
inactive: dose: 7.5 mg/kg/injection, schedule: Q01DX005 (ip), vehicle: saline with Tween-80 96 % of control | dose: 15.0 mg/kg/injection, schedule: Q01DX005 (ip), vehicle: saline with Tween-80 100 % of control | [1] 99 % of control | [2] 107 % of control | [3] 101 % of control | [14] 100 % of control

C(=C1c2ccccc2-c2ccccc21)c1ccccc1
inactive: [15] 100 % of control | [16] 100 % of control | [17] 100 % of control

NCC(=O)NCC(=O)O (H-Gly-Gly-OH)
inactive: dose: 50.0 mg/kg/injection, schedule: Q01DX005 (ip), vehicle: saline 100 % of control | dose: 100.0 mg/kg/injection, schedule: Q01DX005 (ip), vehicle: saline 104 % of control | dose: 200.0 mg/kg/injection, schedule: Q01DX005 (ip), vehicle: saline 100 % of control

O=C(NC(CCS(=O)(=O)NCc1ccc(S(=O)(=O)F)cc1)C(=O)OCc1ccccc1)OCc1ccccc1 (stereo not given)
inactive: dose: 12.5 mg/kg/injection, schedule: Q01DX009 (ip), vehicle: other 90 % of control | dose: 25.0 mg/kg/injection, schedule: Q01DX009 (ip), vehicle: other 89 % of control | dose: 100.0 mg/kg/injection, schedule: Q01DX009 (ip), vehicle: other 102 % of control | dose: 200.0 mg/kg/injection, schedule: Q01DX009 (ip), vehicle: other 98 % of control

Cc1[nH]cc2c1C(c1ccccc1)=NCC(=O)N2
inactive: [6] 105 % of control | [7] 100 % of control | [8] 114 % of control

BrC1(Br)C2CCCCCCC21 (stereo not given)
inactive: [6] 100 % of control | dose: 50.0 mg/kg/injection, schedule: Q04DX003 (ip), vehicle: saline with Tween-80 100 % of control | [7] 100 % of control | [15] 104 % of control | [8] 100 % of control | [16] 104 % of control

CC(=O)O[C@@H]1C[C@@](C)(C(=O)[C@H]2COC(=O)C2)[C@@H]2CC(=O)O[C@@H]3C[C@H]4[C@H](C)C[C@H](O)C(=O)[C@]4(C)[C@@H]1[C@]23C
inactive: dose: 3.0 mg/kg/injection, schedule: Q01DX009 (ip), vehicle: saline + alcohol 98 % of control | dose: 6.0 mg/kg/injection, schedule: Q01DX009 (ip), vehicle: saline + alcohol 116 % of control | dose: 12.0 mg/kg/injection, schedule: Q01DX009 (ip), vehicle: saline + alcohol 107 % of control | dose: 24.0 mg/kg/injection, schedule: Q01DX009 (ip), vehicle: saline + alcohol 100 % of control | dose: 48.0 mg/kg/injection, schedule: Q01DX009 (ip), vehicle: saline + alcohol 107 % of control

C=CCCCn1nc(-c2ccccc2)c(-c2ccccc2)n1
inactive: [6] 106 % of control | [7] 100 % of control | [8] 103 % of control

CCOc1ccc(NC(=O)c2c(C)nc(-c3ccccc3)nc2Nc2ccc(Cl)cc2)cc1
inactive: [2] 90 % of control | [3] 90 % of control | [14] 94 % of control

CCO
inactive: dose: 250.0 mg/kg/injection, schedule: Q01DX009 (ip), vehicle: saline with Tween-80 95 % of control | dose: 0.5 % in 0.5 ml injection vol, schedule: Q01DX009 (ip), vehicle: water 94 % of control | dose: 500.0 mg/kg/injection, schedule: Q01DX009 (ip), vehicle: saline with Tween-80 90 % of control | dose: 1.0 % in 0.5 ml injection vol, schedule: Q01DX009 (ip), vehicle: water 92 % of control | dose: 1000.0 mg/kg/injection, schedule: Q01DX009 (ip), vehicle: saline with Tween-80 95 % of control | dose: 2.0 % in 0.5 ml injection vol, schedule: Q01DX009 (ip), vehicle: water 102 % of control and 94 % of control | dose: 2000.0 mg/kg/injection, schedule: Q01DX009 (ip), vehicle: saline with Tween-80 95 % of control | dose: 4.0 % in 0.5 ml injection vol, schedule: Q01DX009 (ip), vehicle: water 101 % of control and 106 % of control | dose: 8.0 % in 0.5 ml injection vol, schedule: Q01DX009 (ip), vehicle: water 100 % of control and 103 % of control | dose: 16.0 % in 0.5 ml injection vol, schedule: Q01DX009 (ip), vehicle: water 100 % of control

Cc1ccc2c(c1)sc1n[nH]c(=O)n12
inactive: [12] 100 % of control | [13] 105 % of control

O=C1c2ccccc2C(=O)C1C(=Nc1ccc(F)cc1)c1ccccc1
inactive: [9] 103 % of control | [10] 103 % of control | [11] 99 % of control

CN(C)c1ccc2ncc(C(N)=O)c(N)c2c1
inactive: dose: 7.5 mg/kg/injection, schedule: Q01DX005 (ip), vehicle: Klucel (hydroxypropylcellulose) (HPC) 91 % of control | dose: 15.0 mg/kg/injection, schedule: Q01DX005 (ip), vehicle: Klucel (hydroxypropylcellulose) (HPC) 99 % of control | dose: 30.0 mg/kg/injection, schedule: Q01DX005 (ip), vehicle: Klucel (hydroxypropylcellulose) (HPC) 97 % of control

O=C1NC(O)c2cccc(F)c2O1 (stereo not given)
inactive: [4] 100 % of control | [5] 102 % of control

CC(=O)NC1C(OC(C)=O)OC(C[Se][As](C)C)C(OC(C)=O)C1OC(C)=O (stereo not given)
inactive: [12] 105 % of control | [13] 110 % of control

O=N[O-].O=N[O-].[NH2-].[NH2-].[NH2-].[NH2-].[Ni]
inactive: dose: 6.25 mg/kg/injection, schedule: Q01DX009 (ip), vehicle: saline 100 % of control | dose: 12.5 mg/kg/injection, schedule: Q01DX009 (ip), vehicle: saline 105 % of control

COC(=O)C1CC(c2ccccc2)N(c2ccccc2)O1 (stereo not given) (tested in a mixture with another compound)
inactive: [15] 95 % of control | [16] 96 % of control | [17] 94 % of control
